# Measured values from article PMC10914734 (Signal Transduction and Targeted Therapy, 2024).
# Columns and labels:
# Pharmacokinetics in mice = type: in vivo; settings: 14b; for MRT inf: read-out: MRTINF_obs; for AUC(0-inf): read-out: AUCINF_obs
# Human CTSD = Human CTSD (Homo sapiens, UniProt P07339); experiment: Protease panel, CTSD inhibition; type: biochemical; settings: at a concentration of 20 μM; read-out: Inhibition rate, Human CTSD
# Human Chymotrypsin C = Human Chymotrypsin C (Homo sapiens, UniProt Q99895); experiment: Protease panel, chymotrypsin C inhibition; type: biochemical; settings: at a concentration of 20 μM; read-out: Inhibition rate, Human Chymotrypsin C
# Sequence of Human Chymotrypsin C (Q99895 30-268): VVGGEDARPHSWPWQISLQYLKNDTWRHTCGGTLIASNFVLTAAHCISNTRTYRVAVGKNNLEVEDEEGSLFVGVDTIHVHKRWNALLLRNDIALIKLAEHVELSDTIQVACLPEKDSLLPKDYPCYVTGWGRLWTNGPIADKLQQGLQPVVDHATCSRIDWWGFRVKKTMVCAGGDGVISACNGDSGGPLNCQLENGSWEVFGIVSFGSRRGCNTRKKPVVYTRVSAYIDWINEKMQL
# HCoV-229E PsV = experiment: microbe, parasite or virus in culture; type: cell-based; settings: Human coronavirus 229E, Huh-7, read-out: EC50, HCoV-229E PsV
# SARS-CoV-2 PL^pro = SARS-CoV-2 PL^pro (Severe acute respiratory syndrome coronavirus 2, UniProt P0DTD1); experiment: biochemical; type: biochemical; settings: at a concentration of 20 μM
# [1] = test system: LPS-induced acute pulmonary inflammation; experiment: Mouse model of LPS-induced acute pulmonary inflammation; type: in vivo; settings: 100 mg/kg intraperitoneal, 24 h after LPS induction
# Procedure: C57BL/6 mice were obtained from Beijing HFK Bioscience Co., Ltd. (Beijing, China). Animals 6–8 weeks of age were used for the studies and were maintained with free access to pellet food and water in plastic cages at 21 ± 2 °C and kept on a 12 h light/dark cycle. Mice were randomly divided into four groups, each group containing eight mice. The mice were intraperitoneally administered with 100 mg/kg of 14a or 100 mg/kg of 14b or vehicle control 1 h prior to LPS challenge. The compounds were dissolved in solvent containing 5% dimethyl sulfoxide, 5% ethanol, 40% polyethylene glycol 400 and 50% saline (volume ratio). The mice were anesthetized by Zoletil 50. Then mice in the normal group were intranasally inoculated with 20 μL normal saline, and mice in the LPS challenge group were intranasally inoculated with 20 μL (5 μg/μL) LPS to induce pneumonia. At 12 h post-induction, the mice were again intraperitoneally administered with 100 mg/kg of 14a or 100 mg/kg of 14b or vehicle control. Twenty-four hours later, mice were euthanized, and the lung tissues were harvested for further study.
# RNA isolation, cDNA synthesis, and RT-qPCR. Total RNA was isolated from lung tissues using RNA extraction reagent (Vazyme, R401-01). cDNA was synthesized using the HiScript II Q RT SuperMix (Vazyme, R223-01), according to the manufacturer’s instructions. RT-qPCR was performed using ChamQ SYBR qPCR Master Mix (Vazyme, Q331-02) in the CFX96TM Real Time PCR Detection System (Bio-Rad, Shanghai, China). The profile of thermal cycling consisted of initial denaturation at 95 °C for 30 s, 40 cycles at 95 °C for 5 s and 60 °C for 30 s. All primer sequences used in this study are listed in Supplementary Table S5.
# Hematoxylin and eosin (H&E) staining. Lung tissue samples were fixed in 4% paraformaldehyde and embedded in paraffin (Thermo Scientific, 8331). […] was sectioned (5 μm) for H&E staining, and the stained sections were analyzed by a pathologist using a light microscope (Olympus, Tokyo, Japan). Lung injury was evaluated based on histological features, including alveolar septal thickening and inflammatory cell infiltration.
# Pharmacokinetics in rats = type: in vivo; settings: for AUC(0-inf): read-out: AUCINF_obs; for MRT inf: read-out: MRTINF_obs
# SARS-CoV-2 M^pro = SARS-CoV-2 M^pro (Severe acute respiratory syndrome coronavirus 2, UniProt P0DTD1); experiment: biochemical
# MERS-CoV PsV = experiment: microbe, parasite or virus in culture; type: cell-based; settings: Middle East respiratory syndrome-related coronavirus, Huh-7, read-out: EC50, MERS-CoV PsV
# [2] = test system: Huh-7, Vero-E6, RD and 293T-ACE2-TMPRSS2 cell lines; experiment: Cell Counting Kit-8 (CCK8) cytotoxicity assay; type: cell-based; settings: 293T-ACE2-TMPRSS2 cells
# Procedure: Cell viability was performed in a 96-well plate with triplicate for each concentration. All compounds were diluted two times with nine gradients starting at 200, 250. or 500 micromoles in maintenance medium. After 48 h incubation, the supernatant was removed, and 10 μL WST-8 (2-(2-methoxy-4-nitrophenyl)-3-(4-nitrophenyl)-5-(2,4-disulfophenyl)-2H-tetrazolium sodium salt) in maintenance medium was added to the cells. After incubation at 37 °C for 2 h, the plates were measured at 450 nm using a spectrophotometer (BioTek), and cell viability was calculated. All compounds were diluted with maintenance medium containing 2%FBS of DMEM.
# SARS-CoV PsV = experiment: microbe, parasite or virus in culture; type: cell-based; settings: Severe acute respiratory syndrome coronavirus, Huh-7, read-out: EC50, SARS-CoV PsV
# Human CTSL = Human CTSL (Homo sapiens, UniProt P07711); experiment: FRET-based cleavage assay, enzymatic inhibition of human CTSL
# Sequence of Human CTSL (P07711 114-333): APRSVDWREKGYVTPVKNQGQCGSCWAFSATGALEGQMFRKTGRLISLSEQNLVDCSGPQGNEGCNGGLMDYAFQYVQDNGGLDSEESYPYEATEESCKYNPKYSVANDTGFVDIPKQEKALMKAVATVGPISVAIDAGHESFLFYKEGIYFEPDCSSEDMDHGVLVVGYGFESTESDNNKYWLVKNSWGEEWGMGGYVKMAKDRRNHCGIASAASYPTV
# SARS-CoV-2 PsV = experiment: microbe, parasite or virus in culture; type: cell-based; settings: Severe acute respiratory syndrome coronavirus 2, 293T/ACE2, read-out: EC50, SARS-CoV-2 PsV
# [3] = CD-1, mouse, plasma, po, p.o. (20 mg/kg)
# [4] = male, CD-1, mouse, plasma, ip, i.p. (20 mg/kg)
# [5] = male, CD-1, mouse, plasma, iv, i.v. (10 mg/kg)
# [6] = male, SD, rat, plasma, ip, i.p. (5 mg/kg)
# [7] = male, SD, rat, plasma, iv, i.v. (5 mg/kg)
# [8] = male, SD, rat, plasma, po, p.o. (10 mg/kg)
# Sequence of Human CTSD (P07339 65-412): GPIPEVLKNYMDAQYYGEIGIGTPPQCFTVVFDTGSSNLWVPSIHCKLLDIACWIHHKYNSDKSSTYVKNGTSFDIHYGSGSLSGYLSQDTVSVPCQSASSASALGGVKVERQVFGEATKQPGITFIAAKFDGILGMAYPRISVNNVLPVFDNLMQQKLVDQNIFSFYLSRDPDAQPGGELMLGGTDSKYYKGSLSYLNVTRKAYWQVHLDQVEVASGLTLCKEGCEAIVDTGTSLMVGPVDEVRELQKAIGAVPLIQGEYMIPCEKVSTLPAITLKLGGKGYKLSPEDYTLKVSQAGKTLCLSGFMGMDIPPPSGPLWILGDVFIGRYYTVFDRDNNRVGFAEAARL
smiles,measurement,setting,value
"O=C(NCc1ccccc1)C(=O)[C@H](C[C@@H]1CCCNC1=O)NC(=O)[C@H](CC1CCCCC1)NC(=O)c1cc2ccccc2o1 [14b, N-((S)-1-(((S)-4-(benzylamino)-3,4-dioxo-1-((S)-2-oxopiperidin-3-yl)butan-2-yl)amino)-3-cyclohexyl-1-oxopropan-2-yl)benzofuran-2-carboxamide]",Vss_obs,Pharmacokinetics in mice; i.v. (10 mg/kg),6.419 ± 2.698 L/kg
same,AUC(0-t),Pharmacokinetics in mice; [3],463 ± 225 ng·h/mL
same,Cmax,Pharmacokinetics in mice; [3],290 ± 189 ng/mL
same,Tmax,Pharmacokinetics in mice; [3],0.25 h
same,bioavailability,Pharmacokinetics in mice; [3],8%
same,half-life,Pharmacokinetics in mice; [3],1.32 ± 0.77 h
same,MRT inf,Pharmacokinetics in mice; [3],2.11 ± 0.87 h
same,AUC(0-t),Pharmacokinetics in mice; [4],7300 ± 782 ng·h/mL
same,Cmax,Pharmacokinetics in mice; [4],3270 ± 374 ng/mL
same,Tmax,Pharmacokinetics in mice; [4],0.18 ± 0.12 h
same,bioavailability,Pharmacokinetics in mice; [4],128%
same,half-life,Pharmacokinetics in mice; [4],5.77 h
same,AUC(0-inf),Pharmacokinetics in mice; [4],7640 ng·h/mL
same,MRT inf,Pharmacokinetics in mice; [4],5.34 ± 1.81 h
same,AUC(0-t),Pharmacokinetics in mice; [5],2900 ± 1020 ng·h/mL
same,clearance,Pharmacokinetics in mice; [5],62.5 ± 27.4 mL/min/kg
same,half-life,Pharmacokinetics in mice; [5],3.34 ± 2.38 h
same,AUC(0-inf),Pharmacokinetics in mice; [5],2980 ng·h/mL
same,MRT inf,Pharmacokinetics in mice; [5],1.88 ± 1.08 h
same,AUC(0-inf),"Pharmacokinetics in mice; male, CD-1, mouse, plasma, po, p.o. (20 mg/kg)",488 ng·h/mL
same,inhibition,Human CTSD,29 ± 2%
same,inhibition,Human Chymotrypsin C,8 ± 4%
same,EC50,HCoV-229E PsV,13.1 ± 6.26 nM
same,Inhibitory activity against papain-like protease (PL^pro) (in words),SARS-CoV-2 PL^pro,no inhibitory activity
same,inhibition at 20 µM,"SARS-CoV-2 PL^pro; read-out: Inhibition rate, SARS-CoV-2 PL^pro",8 ± 1%
same,"Lung histopathology (inflammatory cell infiltration, alveolar septal thickening) compared with vehicle-treated mice",[1],reduced inflammatory cell infiltration and alveolar septal thickening
same,"Expression levels of inflammatory cytokines (IL-1β, IL-6, TNFα) and chemokines (CCL3, CSF3, CXCL10) in the lung tissues",[1]; mice,reduced
same,Vss_obs,Pharmacokinetics in rats; i.v. (5 mg/kg),2.28 ± 0.184 L/kg
same,AUC(0-t),Pharmacokinetics in rats; [6],9300 ± 994 ng·h/mL
same,Cmax,Pharmacokinetics in rats; [6],1630 ± 99 ng/mL
same,Tmax,Pharmacokinetics in rats; [6],0.25 h
same,bioavailability,Pharmacokinetics in rats; [6],249%
same,half-life,Pharmacokinetics in rats; [6],8.24 ± 1.72 h
same,AUC(0-inf),Pharmacokinetics in rats; [6],10600 ± 557 ng·h/mL
same,MRT inf,Pharmacokinetics in rats; [6],10.6 ± 1.8 h
same,AUC(0-t),Pharmacokinetics in rats; [7],4220 ± 189 ng·h/mL
same,clearance,Pharmacokinetics in rats; [7],19.6 ± 0.9 mL/min/kg
same,half-life,Pharmacokinetics in rats; [7],5.11 ± 0.1 h
same,AUC(0-inf),Pharmacokinetics in rats; [7],4250 ± 188 ng·h/mL
same,MRT inf,Pharmacokinetics in rats; [7],1.94 ± 0.12 h
same,AUC(0-t),Pharmacokinetics in rats; [8],2620 ± 250 ng·h/mL
same,Cmax,Pharmacokinetics in rats; [8],982 ng/mL
same,Tmax,Pharmacokinetics in rats; [8],0.33 ± 0.14 h
same,bioavailability,Pharmacokinetics in rats; [8],32%
same,half-life,Pharmacokinetics in rats; [8],3.86 h
same,AUC(0-inf),Pharmacokinetics in rats; [8],2680 ng·h/mL
same,MRT inf,Pharmacokinetics in rats; [8],3.95 ± 1.27 h
same,IC50,SARS-CoV-2 M^pro,990 nM
same,EC50,MERS-CoV PsV,13.6 ± 3.05 nM
same,Cytotoxicity,[2],very low or no cytotoxicity
same,EC50,SARS-CoV PsV,10.1 ± 7.77 nM
same,IC50,Human CTSL,6.88 ± 0.81 nM
same,EC50,SARS-CoV-2 PsV,0.61 ± 0.06 nM
